Laboratory results: US9533961B2, “Molecules having certain pesticidal utilities, and intermediates, compositions, and processes related thereto” (priority 2014, dated 2017)

Assays:
Format in all cases: in vivo
[1] = test system: Cabbage Looper (Trichoplusia ni, TRIPNI) ("CL"); assay: Bioassay on Cabbage Looper (CL), 128-well diet tray assay; settings: 168 h, read-out: CL % Control (or Mortality) rating
Protocol: (§1) Certain molecules disclosed in this document were tested against BAW and CEW using procedures described in the following examples. In the reporting of the results, the “BAW & CL Rating Table” was used (See Table Section).
Bioassays on CL were conducted using a 128-well diet tray assay. one to five second instar CL larvae were placed in each well (3 mL) of the diet tray that had been previously filled with 1 mL of artificial diet to which 50 μg/cm^2 of the test compound (dissolved in 50 μL of 90:10 acetone-water mixture) had been applied (to each of eight wells) and then allowed to dry. Trays were covered with a clear self-adhesive cover and held at 25° C., 14:10 light-dark for five to seven days. Percent mortality was recorded for the larvae in each well; activity in the eight wells was then averaged. The results are indicated in the table entitled “Table ABC: Biological Results” (See Table Section).

[2] = test system: Green Peach Aphid (Myzus persicae, MYZUPE) ("GPA"); assay: Bioassay on Green Peach Aphid (GPA), foliar spray on cabbage seedlings; settings: 72 h, 200 ppm foliar spray on cabbage seedlings, three days, Abbott corrected % control, read-out: GPA % Control (or Mortality) rating
Protocol: Certain molecules disclosed in this document were tested against GPA using procedures described in the following example. In the reporting of the results, the “GPA Rating Table” was used (See Table Section).
Cabbage seedlings grown in 3-inch pots, with 2-3 small (3-5 cm) true leaves, were used as test substrate. The seedlings were infested with 20-50 GPA (wingless adult and nymph stages) one day prior to chemical application. Four pots with individual seedlings were used for each treatment. Test compounds (2 mg) were dissolved in 2 mL of acetone/methanol (1:1) solvent, forming stock solutions of 1000 ppm test compound. The stock solutions were diluted 5× with 0.025% Tween 20 in water to obtain the solution at 200 ppm test compound. A hand-held aspirator-type sprayer was used for spraying a solution to both sides of […] leaves until runoff. Reference plants (solvent check) were sprayed with the diluent only containing 20% by volume of acetone/methanol (1:1) solvent. Treated plants were held in a holding room for three days at approximately 25° C. and ambient relative humidity (RH) prior to grading. Evaluation was conducted by counting the number of live aphids per plant under a microscope. Percent Control was measured by using Abbott's correction formula (W. S. Abbott, “A Method of Computing the Effectiveness of an Insecticide” J. Econ. Entomol. 18 (1925), pp. 265-267) as follows. Corrected % Control=100*(X−Y)/X • where • X=No. of live aphids on solvent check plants and • Y=No. of live aphids on treated plants

[3] = test system: Beet Armyworm (Spodoptera exigua, LAPHEG) ("BAW"); assay: Bioassay on Beet Armyworm (BAW), 128-well diet tray assay; settings: 168 h, 50 μg/cm^2 on artificial diet, second instar larvae, five to seven days, 25° C., average of eight wells, read-out: BAW % Control (or Mortality) rating
Protocol: as §1
Bioassays on BAW were conducted using a 128-well diet tray assay. one to five second instar BAW larvae were placed in each well (3 mL) of the diet tray that had been previously filled with 1 mL of artificial diet to which 50 μg/cm^2 of the test compound (dissolved in 50 μL of 90:10 acetone-water mixture) had been applied (to each of eight wells) and then allowed to dry. Trays were covered with a clear self-adhesive cover and held at 25° C., 14:10 light-dark for five to seven days. Percent mortality was recorded for the larvae in each well; activity in the eight wells was then averaged. The results are indicated in the table entitled “Table ABC: Biological Results” (See Table Section).

[4] = test system: Yellow Fever Mosquito (Aedes aegypti, AEDSAE) ("YFM"); assay: Bioassay on Yellow Fever Mosquito (YFM), 96-well plate larval assay; settings: about 1 day-old larvae, from 4000 ppm master plate, scored on mortality after 3 days
Protocol: Certain molecules disclosed in this document were tested against YFM using procedures described in the following paragraph. In the reporting of the results, the “YFM Rating Table” was used (See Table Section).
Master plates containing 400 μg of a molecule dissolved in 100 μL of dimethyl sulfoxide (DMSO) (equivalent to a 4000 ppm solution) are used. A master plate of assembled molecules contains 15 μL per well. To this plate, 135 μL of a 90:10 water:acetone mixture is added to each well. A robot (Biomek® NXP Laboratory Automation Workstation) is programmed to dispense 15 μL aspirations from the master plate into an empty 96-well shallow plate (“daughter” plate). There are 6 reps (“daughter” plates) created per master. The created daughter plates are then immediately infested with YFM larvae.
The day before plates are to be treated, mosquito eggs are placed in Millipore water containing liver powder to begin hatching (4 g. into 400 mL). After the daughter plates are created using the robot, they are infested with 220 μL of the liver powder/larval mosquito mixture (about 1 day-old larvae). After plates are infested with mosquito larvae, a non-evaporative lid is used to cover the plate to reduce drying. Plates are held at room temperature for 3 days prior to grading. After 3 days, each well is observed and scored based on mortality.

Row | Structure (SMILES) | mortality at 50 µg/cm2 [1] [%] | mortality at 200 ppm [2] [%] | mortality at 50 µg/cm2 [3] [%] | YFM % Control (or Mortality) rating [4]
1 | Cc1cccc(C)c1Nc1ccccc1C(=O)Nc1ccc(-c2ncn(-c3ccc(OC(F)(F)F)cc3)n2)cc1 [F1, 2-((2,6-dimethylphenyl)amino)-N-(4-(1-(4-(trifluoromethoxy)phenyl)-1H-1,2,4-triazol-3-yl)phenyl)benzamide] | 0 | 0 to 80 | 0 | 
2 | Cc1ccc(Cl)cc1-c1ccccc1C(=O)NCc1ccc(-c2ncn(-c3ccc(OC(F)(F)F)cc3)n2)cc1 [F34, 5′-Chloro-2′-methyl-N-(4-(1-(4-(trifluoromethoxy)phenyl)-1H-1,2,4-triazol-3-yl)benzyl)biphenyl-2-carboxamide] | 50 to 100 |  | 0 | D (No activity noticed in this bioassay)
3 | O=C(NCc1ccc(-c2ncn(-c3ccc(OC(F)(F)F)cc3)n2)cc1)c1ccccc1 [F32, N-(4-(1-(4-(trifluoromethoxy)phenyl)-1H-1,2,4-triazol-3-yl)benzyl)benzamide] | 0 |  | 0 | D (No activity noticed in this bioassay)
4 | O=C(NCc1ccc(-c2ncn(-c3ccc(OC(F)(F)F)cc3)n2)cc1)c1ccccc1-c1ccccc1 [F27, N-(4-(1-(4-(Trifluoromethoxy)phenyl)-1H-1,2,4-triazol-3-yl)benzyl)biphenyl-2-carboxamide] | 50 to 100 |  | 0 to 50 | B (More than 0 - Less than 80)
5 | Cc1cccc(-c2ccccc2C(=O)NCc2ccc(-c3ncn(-c4ccc(OC(F)(F)F)cc4)n3)cc2)c1C [F36, 2′,3′-Dimethyl-N-(4-(1-(4-(trifluoromethoxy)phenyl)-1H-1,2,4-triazol-3-yl)benzyl)biphenyl-2-carboxamide] | 50 to 100 |  | 0 to 50 | A (80-100)
6 | COc1ccc(C(=O)Nc2ccc(-c3ncn(-c4ccc(OC(F)(F)F)cc4)n3)cc2)cc1 [F26, 4-Methoxy-N-(4-(1-(4-(trifluoromethoxy)phenyl)-1H-1,2,4-triazol-3-yl)phenyl)benzamide] | 50 to 100 |  | 50 to 100 | D (No activity noticed in this bioassay)
7 | CC(C)c1cccc(C(=O)Nc2ccc(-c3ncn(-c4ccc(OC(F)(F)F)cc4)n3)cc2)c1 [F15, 3-Isopropyl-N-(4-(1-(4-(trifluoromethoxy)phenyl)-1H-1,2,4-triazol-3-yl)phenyl)benzamide] | 50 to 100 |  | 0 | D (No activity noticed in this bioassay)
8 | Cc1ccc(C(=O)NCc2ccc(-c3ncn(-c4ccc(OC(F)(F)F)cc4)n3)cc2)c(C)c1 [F29, 2,4-Dimethyl-N-(4-(1-(4-(trifluoromethoxy)phenyl)-1H-1,2,4-triazol-3-yl)benzyl)benzamide] | 0 |  | 0 | D (No activity noticed in this bioassay)
9 | Cc1ccc(C)c(-c2ccccc2C(=O)NCc2ccc(-c3ncn(-c4ccc(OC(F)(F)F)cc4)n3)cc2)c1 [F35, 2′,5′-Dimethyl-N-(4-(1-(4-(trifluoromethoxy)phenyl)-1H-1,2,4-triazol-3-yl)benzyl)biphenyl-2-carboxamide] | 50 to 100 |  | 0 to 50 | B (More than 0 - Less than 80)
10 | Cc1ccccc1-c1ccccc1C(=O)NCc1ccc(-c2ncn(-c3ccc(OC(F)(F)F)cc3)n2)cc1 [F30, 2′-Methyl-N-(4-(1-(4-(trifluoromethoxy)phenyl)-1H-1,2,4-triazol-3-yl)benzyl)biphenyl-2-carboxamide] | 50 to 100 |  | 0 to 50 | B (More than 0 - Less than 80)
11 | CC(C)c1cccc(C(=O)NCc2ccc(-c3ncn(-c4ccc(OC(F)(F)F)cc4)n3)cc2)c1 [F28, 3-Isopropyl-N-(4-(1-(4-(trifluoromethoxy)phenyl)-1H-1,2,4-triazol-3-yl)benzyl)benzamide] | 0 |  | 50 to 100 | D (No activity noticed in this bioassay)
12 | O=C(Nc1ccc(-c2ncn(-c3ccc(OC(F)(F)F)cc3)n2)cc1)c1ccc(Oc2ccccc2)cc1 [F6, 4-Phenoxy-N-(4-(1-(4-(trifluoromethoxy)phenyl)-1H-1,2,4-triazol-3-yl)phenyl)benzamide] | 50 to 100 |  | 50 to 100 | D (No activity noticed in this bioassay)
13 | O=C(Nc1ccc(-c2ncn(-c3ccc(OC(F)(F)F)cc3)n2)cc1)c1ccc(-c2ccccc2)cc1 [F25, N-(4-(1-(4-(trifluoromethoxy)phenyl)-1H-1,2,4-triazol-3-yl)phenyl)-[1,1′-biphenyl]-4-carboxamide] | 0 |  | 0 | D (No activity noticed in this bioassay)
14 | CC(C)c1cccc(C(=O)Nc2ccc(-c3ncn(-c4ccc(C(F)(F)F)cc4)n3)cc2)c1 [F24, 3-Isopropyl-N-(4-(1-(4-(trifluoromethyl)phenyl)-1H-1,2,4-triazol-3-yl)phenyl)benzamide] | 50 to 100 |  | 0 | D (No activity noticed in this bioassay)
15 | COc1ccc(-c2ccccc2C(=O)NCc2ccc(-c3ncn(-c4ccc(OC(F)(F)F)cc4)n3)cc2)c(C)c1 [F38, 4′-Methoxy-2′-methyl-N-(4-(1-(4-(trifluoromethoxy)phenyl)-1H-1,2,4-triazol-3-yl)benzyl)biphenyl-2-carboxamide] | 0 |  | 0 | D (No activity noticed in this bioassay)
16 | O=C(Nc1ccc(-c2ncn(-c3ccc(OC(F)(F)C(F)(F)F)cc3)n2)cc1)c1ccc(Oc2ccccc2)cc1 [F10, N-(4-(1-(4-(perfluoroethoxy)phenyl)-1H-1,2,4-triazol-3-yl)phenyl)-4-phenoxybenzamide] | 0 |  | 0 | D (No activity noticed in this bioassay)
17 | CCOc1ccccc1Oc1ccccc1C(=O)Nc1ccc(-c2ncn(-c3ccc(OC(F)(F)F)cc3)n2)cc1 [F17, 2-(2-Ethoxyphenoxy)-N-(4-(1-(4-(trifluoromethoxy)phenyl)-1H-1,2,4-triazol-3-yl)phenyl)benzamide] | 0 |  | 0 to 50 | D (No activity noticed in this bioassay)
18 | Cc1ccc(C(C)C)c(C(=O)NCc2ccc(-c3ncn(-c4ccc(OC(F)(F)F)cc4)n3)cc2)c1 [F39, 2-Isopropyl-5-methyl-N-(4-(1-(4-(trifluoromethoxy)phenyl)-1H-1,2,4-triazol-3-yl)benzyl)benzamide] | 0 |  | 0 | D (No activity noticed in this bioassay)
